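Dose response: 5 concentrations. Exposure: 48 h. Format: 96-well plates. Endpoint: linear interpolation; highest concentration if not reached. GI50 = concentration required for 50% inhibition of growth.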 Activity calls are given as the source filed them. Cut-off read from the data, not from the text of the source: active = GI50 up to about 1.1 µM and inactive = higher.
Legend:
Assay in all cases: NCI anticancer screen, dose series, 48 h
Hs-578T = system: Hs-578T
NCI-H460 = system: NCI-H460
A549 = system: A549
HCT-15 = system: HCT-15
NCI-H522 = system: NCI-H522
SR = system: SR
DU-145 = system: DU-145
U-251 = system: U-251
MOLT-4 = system: MOLT-4
EKVX = system: EKVX
SNB-19 = system: SNB-19
HT-29 = system: HT-29
UACC-257 = system: UACC-257
SF-539 = system: SF-539
LOX IMVI = system: LOX IMVI
RPMI-8226 = system: RPMI-8226
M14 = system: M14
SK-MEL-5 = system: SK-MEL-5
OVCAR-4 = system: OVCAR-4
MDA-N = system: MDA-N

SMILES | GI50 (Hs-578T) | GI50 (NCI-H460) | GI50 (A549) | GI50 (HCT-15) | GI50 (NCI-H522) | GI50 (SR) | GI50 (DU-145) | GI50 (U-251) | GI50 (MOLT-4) | GI50 (EKVX) | GI50 (SNB-19) | GI50 (HT-29) | GI50 (UACC-257) | GI50 (SF-539) | GI50 (LOX IMVI) | GI50 (RPMI-8226) | GI50 (M14) | GI50 (SK-MEL-5) | GI50 (OVCAR-4) | GI50 (MDA-N)
COC(=O)/C=C/CC(=O)NS(C)(=O)=O | > 10 µM (inactive) | > 10 µM (inactive) | > 10 µM (inactive) | > 10 µM | > 10 µM (inactive) | > 10 µM (inactive) | > 10 µM (inactive) | > 10 µM (inactive) | > 10 µM (inactive) | > 10 µM (inactive) | > 10 µM (inactive) | > 10 µM (inactive) | > 10 µM (inactive) | > 10 µM (inactive) | > 10 µM (inactive) | > 10 µM (inactive) | > 10 µM (inactive) | > 10 µM (inactive) | > 10 µM (inactive) | > 10 µM (inactive)
C=C1C(=O)OC2/C=C(\COC(C)=O)CCC(OC(C)=O)C3=CC(OC3=O)C12 (configuration not stated) | 24.2 µM (inactive) | 19.5 µM (inactive) | 20 µM (inactive) | 2.94 µM | 0.526 µM (active) | 2.3 µM (inactive) | 36.1 µM (inactive) | 12.2 µM (inactive) | 1.58 µM (inactive) | 11.7 µM (inactive) | 18 µM (inactive) | 3.9 µM (inactive) | 3.57 µM (inactive) | 6.64 µM (inactive) | 5.45 µM (inactive) | 3.53 µM (inactive) | 2.91 µM (inactive) | 11.6 µM (inactive) | 23.3 µM (inactive) | > 10 µM (inactive)
Cc1ccccc1NC(=O)CC(=O)NNC(Sc1ccccc1)c1cc(/N=N/c2ccc(Br)cc2)ccc1O (configuration not stated) | > 10 µM (inactive) | 0.658 µM (active) | 3.42 µM (inactive) | 0.836 µM | 6.01 µM (inactive) | 0.37 µM (active) | 2.21 µM (inactive) | 2.64 µM (inactive) | 0.332 µM (active) | 5.02 µM (inactive) | 9.48 µM (inactive) | 9.48 µM (inactive) | 3.65 µM (inactive) | 1.37 µM (inactive) | 1.49 µM (inactive) | 1.7 µM (inactive) | 0.723 µM (active) | 1.24 µM (inactive) | 2.09 µM (inactive) | 3.14 µM (inactive)
CCCCCCOc1ccc(NC2=C(Cl)C(=O)c3c(O)ccc(O)c3C2=O)cc1 | 3.35 µM (inactive) | 1.01 µM (active) | 3.27 µM (inactive) | 1.91 µM | 2.15 µM (inactive) | 1.94 µM (inactive) | 5.9 µM (inactive) | 2.32 µM (inactive) | 2.31 µM (inactive) | > 10 µM (inactive) | 3.15 µM (inactive) | 2.11 µM (inactive) | 3.85 µM (inactive) | 2.4 µM (inactive) | 1.67 µM (inactive) | 1.4 µM (inactive) | 2.01 µM (inactive) | 1.31 µM (inactive) | 4.14 µM (inactive) | 2.99 µM (inactive)
O=C1c2c(Br)sc(Br)c2[C@@H](O)[C@H]1O | 23.1 µM (inactive) | 17.2 µM (inactive) | 20.9 µM (inactive) | 11.4 µM | 1.82 µM (inactive) | 1.96 µM (inactive) | 16.4 µM (inactive) | 7.48 µM (inactive) | 5.97 µM (inactive) | 16.7 µM (inactive) | 19.5 µM (inactive) | 19.1 µM (inactive) | 15.1 µM (inactive) | 15.9 µM (inactive) | 7.13 µM (inactive) | 21.7 µM (inactive) | 13.1 µM (inactive) | 18.4 µM (inactive) | 14.1 µM (inactive) | 16.3 µM (inactive)
COC(=O)c1c(C)cccc1C1CN=NC12Cc1cccc(C)c1C2=O (configuration not stated) | > 100 µM (inactive) | 12.6 µM (inactive) | 18.9 µM (inactive) | 34 µM | 15.9 µM (inactive) | 26.7 µM (inactive) | 47.3 µM (inactive) | 39.4 µM (inactive) |  | 32 µM (inactive) | 48.8 µM (inactive) | 33 µM (inactive) | 19.6 µM (inactive) | 22.8 µM (inactive) | 13.6 µM (inactive) | 17.2 µM (inactive) | 10.4 µM (inactive) | 17.8 µM (inactive) | 23.9 µM (inactive) | 33.6 µM (inactive)
CC(=O)OC(Cc1ccc2ccccc2n1)(C(F)(F)F)C(F)(F)F | 1.35 µM (inactive) | 6 µM (inactive) | 9.53 µM (inactive) | 1.97 µM | 0.519 µM (active) | 0.11 µM (active) | 3.31 µM (inactive) | 5.74 µM (inactive) | 0.0796 µM (active) | 4.62 µM (inactive) | 3.76 µM (inactive) | 1.27 µM (inactive) |  | 2.32 µM (inactive) | 0.267 µM (active) | 0.0272 µM (active) | 1.23 µM (inactive) | 0.253 µM (active) | 2.45 µM (inactive) | 1.17 µM (inactive)
Cc1ccc(CC2(C(=O)O)Cc3ccc(C)cc3C2)cc1 (configuration not stated) | > 100 µM (inactive) | > 100 µM (inactive) | 72.9 µM (inactive) | 54 µM | > 100 µM (inactive) | > 100 µM (inactive) | > 100 µM (inactive) | 71.3 µM (inactive) | > 100 µM (inactive) | 55.3 µM (inactive) | > 100 µM (inactive) | > 100 µM (inactive) | > 100 µM (inactive) | > 100 µM (inactive) | > 100 µM (inactive) | 69.3 µM (inactive) | > 100 µM (inactive) | > 100 µM (inactive) | > 100 µM (inactive) | > 100 µM (inactive)
COc1ccc(NC(=O)CC(=O)n2nc(C)c(/N=N/c3ccc(C)c(C)c3)c2C)cc1 | 25.2 µM (inactive) | > 100 µM (inactive) | > 100 µM (inactive) |  | > 100 µM (inactive) | 43.3 µM (inactive) | > 100 µM (inactive) | 23 µM (inactive) | 78.3 µM (inactive) | 15.1 µM (inactive) | 58.3 µM (inactive) | > 100 µM (inactive) | > 10 µM (inactive) | 26.5 µM (inactive) | 50.5 µM (inactive) | > 100 µM (inactive) | > 100 µM (inactive) | > 100 µM (inactive) | > 100 µM (inactive) | > 100 µM (inactive)
COc1cc(/C=C(\C#N)C(N)=C(C#N)C#N)cc(O)c1O | 42.9 µM (inactive) | > 89.1 µM (inactive) | > 100 µM (inactive) | > 68.5 µM | 36 µM (inactive) | 35.1 µM (inactive) | > 100 µM (inactive) | > 88.7 µM (inactive) | 55.2 µM (inactive) | > 89.7 µM (inactive) | > 87.5 µM (inactive) | > 83.9 µM (inactive) | > 100 µM (inactive) | > 100 µM (inactive) | > 61.4 µM (inactive) | > 100 µM (inactive) | > 100 µM (inactive) | > 100 µM (inactive) | > 100 µM (inactive) | 68.2 µM (inactive)
